From patent US11787802B2, “Dihydrobenzimidazolones for medical treatment” (C4 Therapeutics, Inc., priority 2017, dated 2023)

molecular target: hCereblon(M1-L442)_hDDB1(M1-H1140) (Homo sapiens (Human), UniProt Q96SW2); assay: Fluorescence direct binding protocol (tryptophan fluorescence titration); conditions: fluorescence titration at 20° C., excited at 280 nm, recorded at 340 nm; protein 5.0 E−8 M; assay buffer 50 mM Hepes 7.4 200 mM NaCl; read-out: Fluorescence h-Cereblon_DDB1 Mean Kd_EQ
How it was run: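 At 20° C., protein at constant concentration was titrated with ligand in DMSO over at least 12 steps, exciting tryptophan at 280 nm and reading emission at 340 nm. Intensities were corrected for dilution and filter effect, and Kd was fitted assuming 1:1 binding.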

hCereblon(M1-L442)_hDDB1(M1-H1140), sequence (Q96SW2 whole entry): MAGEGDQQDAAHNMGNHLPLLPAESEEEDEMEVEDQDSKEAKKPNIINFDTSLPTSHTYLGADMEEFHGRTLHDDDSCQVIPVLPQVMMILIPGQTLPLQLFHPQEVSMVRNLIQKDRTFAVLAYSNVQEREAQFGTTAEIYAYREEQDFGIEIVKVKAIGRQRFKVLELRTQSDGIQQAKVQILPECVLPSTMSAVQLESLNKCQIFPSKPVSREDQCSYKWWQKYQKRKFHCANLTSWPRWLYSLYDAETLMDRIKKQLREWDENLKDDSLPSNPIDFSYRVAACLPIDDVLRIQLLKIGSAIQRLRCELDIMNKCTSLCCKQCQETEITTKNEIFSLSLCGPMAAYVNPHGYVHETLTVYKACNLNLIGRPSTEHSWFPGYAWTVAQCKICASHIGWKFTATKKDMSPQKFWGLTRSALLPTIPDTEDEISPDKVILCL
hCereblon(M1-L442)_hDDB1(M1-H1140), sequence (Q16531 whole entry partner): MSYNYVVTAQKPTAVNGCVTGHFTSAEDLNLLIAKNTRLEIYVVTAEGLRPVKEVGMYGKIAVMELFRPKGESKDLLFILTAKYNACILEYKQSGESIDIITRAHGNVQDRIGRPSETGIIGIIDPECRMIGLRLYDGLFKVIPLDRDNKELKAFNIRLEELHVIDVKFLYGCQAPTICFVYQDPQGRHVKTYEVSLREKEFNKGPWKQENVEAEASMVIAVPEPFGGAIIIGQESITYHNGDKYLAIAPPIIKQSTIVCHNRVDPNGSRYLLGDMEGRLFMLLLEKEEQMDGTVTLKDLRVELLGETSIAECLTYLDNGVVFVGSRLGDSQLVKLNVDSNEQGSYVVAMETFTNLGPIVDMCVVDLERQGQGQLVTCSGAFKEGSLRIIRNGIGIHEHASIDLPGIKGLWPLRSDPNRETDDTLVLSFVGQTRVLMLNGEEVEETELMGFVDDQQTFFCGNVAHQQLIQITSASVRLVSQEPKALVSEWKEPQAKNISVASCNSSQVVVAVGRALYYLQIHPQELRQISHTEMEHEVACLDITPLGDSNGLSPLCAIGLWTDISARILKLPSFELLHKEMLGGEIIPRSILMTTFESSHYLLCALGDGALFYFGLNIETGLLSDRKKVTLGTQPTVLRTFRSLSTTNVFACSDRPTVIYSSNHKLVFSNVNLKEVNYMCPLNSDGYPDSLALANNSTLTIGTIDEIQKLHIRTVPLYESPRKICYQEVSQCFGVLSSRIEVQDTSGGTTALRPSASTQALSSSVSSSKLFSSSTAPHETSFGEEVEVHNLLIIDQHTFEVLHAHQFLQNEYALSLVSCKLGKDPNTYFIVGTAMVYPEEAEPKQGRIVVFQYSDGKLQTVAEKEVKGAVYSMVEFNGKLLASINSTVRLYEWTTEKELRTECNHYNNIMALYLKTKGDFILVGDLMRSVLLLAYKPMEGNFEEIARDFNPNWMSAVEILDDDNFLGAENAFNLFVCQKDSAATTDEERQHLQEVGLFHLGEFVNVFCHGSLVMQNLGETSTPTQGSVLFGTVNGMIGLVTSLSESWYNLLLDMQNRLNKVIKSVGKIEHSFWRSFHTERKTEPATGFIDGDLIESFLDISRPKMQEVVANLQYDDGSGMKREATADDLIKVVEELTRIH

Point of comparison: O=C(Nc1ccc2[nH]c(=O)[nH]c2c1)c1cccc2c1CCN2 [Example 144, N-(2-Oxo-2,3-dihydro-1H-benzo[d]imidazol-5-yl)indoline-4-carboxamide], Kd 0.029 µM. Against it:
- COC(=O)c1cccc2c1CCN2C(=O)c1ccc2[nH]c(=O)[nH]c2c1 [Example 54, Methyl 1-(2-oxo-2,3-dihydro-1H-benzo[d]imidazole-5-carbonyl)indoline-4-carboxylate] — within 1.5-fold, 0.025 µM
- O=c1[nH]c2ccc(-c3ccnc(Cl)c3)cc2[nH]1 [Example 20, 5-(2-Chloropyridin-4-yl)-1H-benzo[d]imidazol-2(3H)-one] — 2.3-fold higher, 0.068 µM
- CC(=O)N1CCC(NC(=O)c2ccc3[nH]c(=O)[nH]c3c2)CC1 [Example 23, N-(1-Acetylpiperidin-4-yl)-2-oxo-2,3-dihydro-1H-benzo[d]imidazole-5-carboxamide] — 9.7-fold lower, 0.003 µM
- CNC(=O)c1ccc2c(c1)nc(C(C)C)n2-c1ccc2[nH]c(=O)[nH]c2c1 [Example 16, 2-Isopropyl-N-methyl-2′-oxo-2′,3′-dihydro-1′H-[1,5′-bibenzo[d]imidazole]-5-carboxamide] — 2.6-fold lower, 0.011 µM
- O=C1CCCN1c1ccc2[nH]c(=O)[nH]c2c1 [Example 33, 5-(2-Oxopyrrolidin-1-yl)-1,3-dihydro-2H-benzo[d]imidazol-2-one] — within 1.5-fold, 0.024 µM
- CC(=O)N1CCC(NS(=O)(=O)c2ccc3[nH]c(=O)[nH]c3c2)CC1 [Example 117, N-(1-Acetylpiperidin-4-yl)-2-oxo-2,3-dihydro-1H-benzo[d]imidazole-5-sulfonamide] — 3.6-fold lower, 0.008 µM
- O=c1[nH]c2ccc(-n3ccnc3-c3ccnc4ccccc34)cc2[nH]1 [Example 12, 5-(2-(Quinolin-4-yl)-1H-imidazol-1-yl)-1H-benzo[d]imidazol-2(3H)-one] — 29-fold lower, 0.001 µM
- COC(=O)c1cccc2c1CCCN2C(=O)Nc1ccc2[nH]c(=O)[nH]c2c1 [Example 98, Methyl 1-((2-oxo-2,3-dihydro-1H-benzo[d]imidazol-5-yl)carbamoyl)-1,2,3,4-tetrahydroquinoline-5-carboxylate] — 3-fold higher, 0.086 µM
- CC(=O)N1CCN(c2ccc3[nH]c(=O)[nH]c3c2)CC1 [Example 62, 5-(4-Acetylpiperazin-1-yl)-1,3-dihydro-2H-benzo[d]imidazol-2-one] — lower, < 0.001 µM
- O=C(NCc1ccccc1)Nc1ccc2[nH]c(=O)[nH]c2c1 [Example 94, 1-Benzyl-3-(2-oxo-2,3-dihydro-1H-benzo[d]imidazol-5-yl)urea] — lower, < 0.001 µM
- CN(C(=O)c1ccc2[nH]c(=O)[nH]c2c1)c1ccccc1 [Example 96, N-Methyl-2-oxo-N-phenyl-2,3-dihydro-1H-benzo[d]imidazole-5-carboxamide] — 3.2-fold lower, 0.009 µM
- Cc1sc2c(c1C)C(c1ccc(Cl)cc1)=N[C@@H](CC(=O)NCCCCCNC(=O)c1cccc3c1CCN3C(=O)Nc1ccc3[nH]c(=O)[nH]c3c1)c1nnc(C)n1-2 [Example D, N4-[5-[[2-[(9S)-7-(4-Chlorophenyl)-4,5,13-trimethyl-3-thia-1,8,11,12-tetrazatricyclo[8.3.0.02,6]trideca-2(6),4,7,10,12-pentaen-9-yl]acetyl]amino]pentyl]-N1-(2-oxo-1,3-dihydrobenzimidazol-5-yl)indoline-1,4-dicarboxamide] — 4.1-fold lower, 0.007 µM
- CC(O)c1nc2ccccc2n1-c1ccc2[nH]c(=O)[nH]c2c1 (centres unmarked) [Example 84, 5-[2-(1-Hydroxyethyl)benzimidazol-1-yl]-1,3-dihydrobenzimidazol-2-one] — 9.7-fold lower, 0.003 µM
- CCOC(=O)c1ccc(NC(=O)Nc2ccc3[nH]c(=O)[nH]c3c2)cc1 [Example 126, Ethyl 4-(3-(2-oxo-2,3-dihydro-1H-benzo[d]imidazol-5-yl)ureido)benzoate] — 3.2-fold lower, 0.009 µM
- CC(C)(C)OC(=O)Nc1ccc2c(c1)CCN2Cc1ccc2[nH]c(=O)[nH]c2c1 [Example 148, tert-Butyl (1-((2-oxo-2,3-dihydro-1H-benzo[d]imidazol-5-yl)methyl)indolin-5-yl)carbamate] — 1.5-fold lower, 0.019 µM
- NS(=O)(=O)c1ccc(C(=O)Nc2ccc3[nH]c(=O)[nH]c3c2)cc1 [Example 100, N-(2-Oxo-2,3-dihydro-1H-benzo[d]imidazol-5-yl)-4-sulfamoylbenzamide] — the same, 0.029 µM
- Cn1c(=O)n(C)c2cc(NC(=O)c3ccco3)ccc21 [Example 25, N-(1,3-Dimethyl-2-oxo-benzimidazol-5-yl)furan-2-carboxamide] — 3.8-fold higher, 0.111 µM
- COC(=O)c1ccc(Nc2ccc3[nH]c(=O)[nH]c3c2)nc1 [Example 153, Methyl 6-((2-oxo-2,3-dihydro-1H-benzo[d]imidazol-5-yl)amino)nicotinate] — 1.8-fold lower, 0.016 µM
- CNC(=O)c1ccc2c(c1)nc(C1CCC(OC)CC1)n2-c1ccc2[nH]c(=O)[nH]c2c1 (centres unmarked) [Example 131, 2-(4-Methoxycyclohexyl)-N-methyl-2′-oxo-2′,3′-dihydro-1′H-[1,5′-bibenzo[d]imidazole]-5-carboxamide] — 2.9-fold lower, 0.01 µM
- COC(=O)c1ccc2c(c1)CCN2C(=O)Nc1ccc2[nH]c(=O)[nH]c2c1 [Example 92, Methyl 1-((2-oxo-2,3-dihydro-1H-benzo[d]imidazol-5-yl)carbamoyl)indoline-5-carboxylate] — within 1.5-fold, 0.033 µM
- COC(=O)c1ccc(S(=O)(=O)Nc2ccc3[nH]c(=O)[nH]c3c2)cc1 [Example 118, Methyl 4-(N-(2-oxo-2,3-dihydro-1H-benzo[d]imidazol-5-yl)sulfamoyl)benzoate] — 2.8-fold higher, 0.082 µM
- CCOC(=O)c1ccc(NS(=O)(=O)c2ccc3[nH]c(=O)[nH]c3c2)cc1 [Example 43, Ethyl 4-((2-oxo-2,3-dihydro-1H-benzo[d]imidazole)-5-sulfonamido)benzoate] — 3.4-fold higher, 0.1 µM
- O=c1[nH]c2ccc(N3CCNCC3)cc2[nH]1 [Example 58, 5-(Piperazin-1-yl)-1,3-dihydro-2H-benzo[d]imidazol-2-one] — 2.4-fold lower, 0.012 µM
- Cn1c(=O)n(C)c2cc(Nc3ccccc3[N+](=O)[O-])ccc21 [Example 49, 1,3-Dimethyl-5-((2-nitrophenyl)amino)-1,3-dihydro-2H-benzo[d]imidazol-2-one] — within 1.5-fold, 0.023 µM
- CC(=O)N1CCN(C(=O)c2ccc3[nH]c(=O)[nH]c3c2)CC1 [Example 22, 5-(4-Acetylpiperazine-1-carbonyl)-1H-benzo[d]imidazol-2(3H)-one] — 3.6-fold higher, 0.103 µM
- CNC(=O)c1ccc(Oc2ccc3[nH]c(=O)[nH]c3c2)cc1 [Example 156, N-Methyl-4-((2-oxo-2,3-dihydro-1H-benzo[d]imidazol-5-yl)oxy)benzamide] — within 1.5-fold, 0.022 µM
- CNC(=O)c1ccc2c(c1)nc(-c1cccc(COC)c1)n2-c1ccc2[nH]c(=O)[nH]c2c1 [Example 57, 2-(3-(Methoxymethyl)phenyl)-N-methyl-2′-oxo-2′,3′-dihydro-1′H-[1,5′-bibenzo[d]imidazole]-5-carboxamide] — 4.1-fold lower, 0.007 µM
- CNC(=O)c1cccc2c1CCN2C(=O)Nc1ccc2[nH]c(=O)[nH]c2c1 [Example 93, N4-Methyl-N1-(2-oxo-2,3-dihydro-1H-benzo[d]imidazol-5-yl)indoline-1,4-dicarboxamide] — 2.9-fold lower, 0.01 µM
- CCOC(=O)c1ccc2c(c1)CN(c1ccc3[nH]c(=O)[nH]c3c1)C2=O [Example 111, Ethyl 1-oxo-2-(2-oxo-1,3-dihydrobenzimidazol-5-yl)isoindoline-5-carboxylate] — 1.6-fold lower, 0.018 µM
- CC(C)(C)OC(=O)Nc1ccc2c(c1)CCN2C(=O)Nc1ccc2[nH]c(=O)[nH]c2c1 [Example 119, tert-Butyl (1-((2-oxo-2,3-dihydro-1H-benzo[d]imidazol-5-yl)carbamoyl)indolin-5-yl)carbamate] — 3.9-fold higher, 0.113 µM
- CNC(=O)c1ccc2c(c1)nc(Cc1ccccc1OC)n2-c1ccc2[nH]c(=O)[nH]c2c1 [Example 45, 2-(2-Methoxybenzyl)-N-methyl-2′-oxo-2′,3′-dihydro-1′H-[1,5′-bibenzo[d]imidazole]-5-carboxamide] — within 1.5-fold, 0.022 µM
- CC(C)(C)OC(=O)N1CCC(S(=O)(=O)Nc2ccc3[nH]c(=O)[nH]c3c2)CC1 [Example 125, tert-Butyl 4-(N-(2-oxo-2,3-dihydro-1H-benzo[d]imidazol-5-yl)sulfamoyl)piperidine-1-carboxylate] — within 1.5-fold, 0.02 µM
- O=c1[nH]c2ccc(OCc3ccccc3)cc2[nH]1 [Example 154, 5-(Benzyloxy)-1,3-dihydro-2H-benzo[d]imidazol-2-one] — 1.7-fold lower, 0.017 µM
- O=c1[nH]c2ccc(NC3CCN(Cc4ccccc4)CC3)cc2[nH]1 [Example 152, 5-((1-Benzylpiperidin-4-yl)amino)-1,3-dihydro-2H-benzo[d]imidazol-2-one] — within 1.5-fold, 0.021 µM
- CNC(=O)c1ccc2c(c1)nc(C1(c3ccc(OC)cc3)CC1)n2-c1ccc2[nH]c(=O)[nH]c2c1 [Example 115, 2-(1-(4-Methoxyphenyl)cyclopropyl)-N-methyl-2′-oxo-2′,3′-dihydro-1′H-[1,5′-bibenzo[d]imidazole]-5-carboxamide] — 3.3-fold higher, 0.096 µM
- O=c1[nH]c2ccc(N3C[C@H]4CC[C@@H](C3)N4)cc2[nH]1 [Example 59, 5-[rac-(1S,5R)-3,8-diazabicyclo[3.2.1]octan-3-yl]-1,3-dihydrobenzimidazol-2-one] — 4.8-fold lower, 0.006 µM
- Cc1ccccc1-c1ccccc1C(=O)Nc1ccc2[nH]c(=O)[nH]c2c1 [Example 122, 2′-Methyl-N-(2-oxo-2,3-dihydro-1H-benzo[d]imidazol-5-yl)-[1,1′-biphenyl]-2-carboxamide] — 25-fold higher, 0.73 µM
- Cc1ncc(-c2ccc3[nH]c(=O)[nH]c3c2)s1 [Example 21, 5-(2-Methylthiazol-5-yl)-1H-benzo[d]imidazol-2(3H)-one] — 5.8-fold lower, 0.005 µM
- CC(C)c1nc2ccccc2n1-c1ccc2c(c1)[nH]c(=O)n2C [Example 34, 2-Isopropyl-1′-methyl-1′,3′-dihydro-2′H-[1,5′-bibenzo[d]imidazol]-2′-one] — 1.5-fold lower, 0.019 µM
- CNC(=O)c1cccc2c1nc(C(C)C)n2-c1ccc2[nH]c(=O)[nH]c2c1 [Example 60, 2-Isopropyl-N-methyl-2′-oxo-2′,3′-dihydro-1′H-[1,5′-bibenzo[d]imidazole]-4-carboxamide] — 1.6-fold higher, 0.047 µM
